This note sets out measurements from PubChem BioAssay AID2060619 (Molecular Pharmacology Branch, DTP, NCI, 2025).

This assay relates to 323965-272-R-J2-PDC complex spheroid viability. Description: Anticancer human tumor 323965-272-R-J2-PDC patient-derived pancreatic carcinoma cell line growth inhibition [CLK]. The following applies: for viability, T/C: stronger effect = lower value. From the text:
A high-throughput screen of multi-cell type tumor spheroids was designed to identify active combinations of […] and targeted small molecules. Complex spheroids include a stromal component modeled by human endothelial cells (HUVEC) and fibroblasts modeled by human mesenchymal stem cells (MSCs). The concentration ranges selected for each drug and investigational agent were based upon clinically achievable concentrations if the clinical Cmax of the agent was known.
Compounds. The drugs and investigational agents: cirtuvivint (SM08502; NSC835563), CC-671 (NSC850746), vemurafenib (NSC761431), tapotoclax (NSC804041), sotorasib (NSC818433), adagrasib (NSC831453), MRTX-1133 (NSC836407), BAY2416964 (NSC825713), copanlisib (NSC816437), inavolisib (NSC800729), abemaciclib (NSC768073), osimertinib (NSC779217), entinostat (NSC756642), eltanexor (KPT-8602, NSC794443), venetoclax (NSC766270), ceralasertib (NSC777638), bortezomib (NSC756655), olaparib (NSC753686), talazoparib (NSC767125), alisertib (NSC759677), peposertib (NSC802822), gemcitabine (NSC613327), 5-fluorouracil (NSC19893), SN-38 (NSC673596), oxaliplatin (NSC266046), paclitaxel (NSC125973), and doxorubicin (NSC123127), were obtained from the National Cancer Institute (NCI) Developmental Therapeutics Program Chemical Repository. The FDA-approved anticancer drug set is available from the Developmental Therapeutics Program at https://dtp.cancer.gov/organization/dscb/obtaining/available plates.htm. […] The stock solutions were prepared in dimethyl sulfoxide (DMSO, Sigma-Aldrich, St. Louis, MO, cat. D2650), except for the platinum complexes which were prepared in saline (Quality Biological, Gaithersburg, MD, cat. 114-055-101), at 800-fold the tested concentration and stored at -70 degrees C prior to their use. All drugs and investigational agents were tested over a range starting from a high concentration at or near the clinical Cmax and decreasing in half-log increments. If the clinical Cmax for an agent had not been determined, the highest concentration tested was 10 microM.
Cell Culture. All cells were maintained in an incubator at 37 degrees C and 5% CO2 with 95% humidity. The PDC lines were cultured according to standard operating procedures established by the NCI PDMR. Briefly, all PDCs were thawed and cultured in Matrigel-coated flasks prepared with a working solution of 1X Ham's F-12 nutrient mix, without supplementation (Invitrogen, Waltham, MA, cat. 11765054), 100 U/mL penicillin-streptomycin (Invitrogen, cat. 15140122), and 2.5% Matrigel (Corning Inc., Corning, NY, cat. 354248) for the first three passages. The 947758-054-R-J2-PDC line was cultured in 6B/Colon 1A media, which includes advanced DMEM/F-12 (Thermo Fisher Scientific, cat. 12634028), 10 mM HEPES (Thermo Fisher Scientific, cat. 15630080), 1X GlutaMAX supplement (Thermo Fisher Scientific, cat. 35050061), 0.1 mg/mL primocin (InvivoGen, cat. ant-pm-2), 10% defined fetal bovine serum, heat inactivated (HyClone Laboratories Inc., cat. SH30070.03HI), 1.25 mM N-Acetyl-L-cysteine (Sigma-Aldrich, cat. A9165), 10 mM nicotinamide (Sigma-Aldrich, cat. N0636), 1X B-27 supplement (Thermo Fisher Scientific, cat. 17504044), 1X N-2 supplement (Thermo Fisher Scientific, cat. 17502048), and 10 microM Y-27632 dihydrochloride (Tocris Bioscience, cat. 1254). The 876862-298-R-J1-PDC was cultured in 6E media, which includes all 6B/Colon 1A media components plus 50% L-WRN conditioned media (ATCC, cat. CRL-3276), 50 ng/mL recombinant human EGF recombinant protein (hEGF; Thermo Fisher Scientific, cat. PHG0311), 10 ng/mL recombinant human fibroblast growth factor 10 (hGFG-10; PeproTech, cat. 100-26), 1 ng/mL recombinant human fibroblast growth factor 2 (hFGF-2; PeproTech, cat. 100-18B), and 1 µM prostaglandin E2 (PGE2; Tocris, cat. 2296). The 227483-062-R1-J1-PDC line was cultured in Panc media, containing all 6E components except hFGF-2, with the addition of 500 nM SB-431542 (Selleckchem, cat. S1067) and 10 nM gastrin (Tocris, cat. 3006). […]

Setting [1] is: curve of first compound, second compound 0.0316 µM.
The mark [2] stands for this setting: curve of first compound, second compound 0.1 µM.
Where [3] appears, read: curve of first compound, second compound 0.316 µM.
Where [4] appears, read: curve of first compound, second compound 1 µM.
[5] abbreviates: curve of first compound, second compound 3.16 µM.
[6] abbreviates: curve of first compound, second compound 10 µM.
The mark [7] stands for this setting: second compound 0.0316 µM, first compound 0.0316 µM.
Setting [8] is: second compound 0.0316 µM, first compound 0.1 µM.
Setting [9] is: second compound 0.0316 µM, first compound 0.316 µM.
The mark [10] stands for this setting: second compound 0.0316 µM, first compound 1 µM.
The mark [11] stands for this setting: second compound 0.0316 µM, first compound 3.16 µM.
Where [12] appears, read: second compound 0.0316 µM, first compound 10 µM.
The mark [13] stands for this setting: second compound 0.1 µM, first compound 0.0316 µM.
The mark [14] stands for this setting: second compound 0.1 µM, first compound 0.1 µM.
The mark [15] stands for this setting: second compound 0.1 µM, first compound 0.316 µM.
Setting [16] is: second compound 0.1 µM, first compound 1 µM.
Where [17] appears, read: second compound 0.1 µM, first compound 3.16 µM.
[18] abbreviates: second compound 0.1 µM, first compound 10 µM.
The mark [19] stands for this setting: second compound 0.316 µM, first compound 0.0316 µM.
[20] abbreviates: second compound 0.316 µM, first compound 0.1 µM.
[21] abbreviates: second compound 0.316 µM, first compound 0.316 µM.
[22] abbreviates: second compound 0.316 µM, first compound 1 µM.
[23] abbreviates: second compound 0.316 µM, first compound 3.16 µM.
[24] abbreviates: second compound 0.316 µM, first compound 10 µM.
Setting [25] is: second compound 1 µM, first compound 0.0316 µM.
The mark [26] stands for this setting: second compound 1 µM, first compound 0.1 µM.
Where [27] appears, read: second compound 1 µM, first compound 0.316 µM.
The mark [28] stands for this setting: second compound 1 µM, first compound 1 µM.
[29] abbreviates: second compound 1 µM, first compound 3.16 µM.
Setting [30] is: second compound 1 µM, first compound 10 µM.
Setting [31] is: second compound 3.16 µM, first compound 0.0316 µM.
The mark [32] stands for this setting: second compound 3.16 µM, first compound 0.1 µM.
[33] abbreviates: second compound 3.16 µM, first compound 0.316 µM.
The mark [34] stands for this setting: second compound 3.16 µM, first compound 1 µM.
[35] abbreviates: second compound 3.16 µM, first compound 3.16 µM.
Setting [36] is: second compound 3.16 µM, first compound 10 µM.
The mark [37] stands for this setting: second compound 10 µM, first compound 0.0316 µM.
Setting [38] is: second compound 10 µM, first compound 0.1 µM.
Where [39] appears, read: second compound 10 µM, first compound 0.316 µM.
Setting [40] is: second compound 10 µM, first compound 1 µM.
[41] abbreviates: second compound 10 µM, first compound 3.16 µM.
[42] abbreviates: second compound 10 µM, first compound 10 µM.

Structures are written as SMILES. Several values for one entry are separate records, joined by “and”; a condition that tells them apart may be missing. Equal entries are not always repeated.
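Further: spheroids exposed to agents for seven days before readout.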
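Wherever viability, T/C is given: percent of DMSO vehicle control wells so 100% = untreated growth.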

Usually viability, T/C stands for the result in the treated group divided by that in the control group, in per cent. As usually defined, the IC50 is the concentration needed to halve the response being measured. Turning to `C=CC(=O)N1CCN(c2nc(=O)n(-c3c(C)ccnc3C(C)C)c3nc(-c4c(O)cccc4F)c(F)cc23)C(C)C1` (stereo not drawn), the viability, T/C runs as follows: (compound 0.0316 µM) 75.1% and 73.7%; (compound 0.1 µM) 60.8% and 66.9%; (compound 0.316 µM) 55.2% and 68.3%; (compound 1 µM) 67.1% and 84.3%; (compound 3.16 µM) 76% and 71.3%; (compound 10 µM) 62.9% and 66.1%. Moreover, the 50% inhibitory concentration (IC50) (curve of compound) is above 10000 nM.

Take `CC1(C)CCC(CN2CCN(c3ccc(C(=O)NS(=O)(=O)c4ccc(NCC5CCOCC5)c([N+](=O)[O-])c4)c(Oc4cnc5[nH]ccc5c4)c3)CC2)=C(c2ccc(Cl)cc2)C1` + CNC(=O)c1ccc(Nc2nc(OC3CCCC3)c3c(-c4ccc5nc(C)oc5c4)c[nH]c3n2)c(OC)c1: the IC50 by setting is: under setting [1], 5550 nM; under setting [2], 4210 nM; under setting [3], 2300 nM; under setting [4], below 31.6 nM; under setting [5], below 31.6 nM; under setting [6], below 31.6 nM. Moreover, the viability, T/C runs as follows: under setting [7], 102%; under setting [8], 93.4%; under setting [9], 98.7%; under setting [10], 93%; under setting [11], 89.9%; under setting [12], 8.02%. The viability, T/C under setting [13] was 87.4%; the viability, T/C under setting [14] was 94.4%; the viability, T/C under setting [15] is 78.8%; the viability, T/C under setting [16] was 80.2%; the viability, T/C under setting [17] is 65.6%; the viability, T/C under setting [18] is 7.13%. The viability, T/C under setting [19] is 67.7%; the viability, T/C under setting [20] is 69%; the viability, T/C under setting [21] was 64.7%; the viability, T/C under setting [22] is 58.7%; the viability, T/C under setting [23] was 47.3%; the viability, T/C under setting [24] was 7.29%. Also, the viability, T/C was 44.1% under setting [25]; 45.9% under setting [26]; 45.2% under setting [27]; 42% under setting [28]; 36.1% under setting [29]; 7.06% under setting [30]. Besides, the viability, T/C under setting [31] was 39.5%; the viability, T/C under setting [32] is 41.8%; the viability, T/C under setting [33] is 43.5%; the viability, T/C under setting [34] is 36.1%; the viability, T/C under setting [35] was 37%; the viability, T/C under setting [36] is 7.39%. Moreover, the viability, T/C runs as follows: under setting [37], 36.7%; under setting [38], 36.2%; under setting [39], 41.5%; under setting [40], 33.7%; under setting [41], 32.6%; under setting [42], 8.69%.

Take `CNC(=O)c1ccc(Nc2nc(OC3CCCC3)c3c(-c4ccc5nc(C)oc5c4)c[nH]c3n2)c(OC)c1`: the viability, T/C runs as follows: (compound 0.1 µM) 87.2% [middle of 12 runs]; (compound 0.316 µM) 65.7% [middle of 12 runs]; (compound 1 µM) 49.8% [middle of 12 runs]; (compound 3.16 µM) 44.7% [middle of 12 runs]; (compound 10 µM) 47.2% [middle of 12 runs].

For `C=C(F)C(=O)N1CCN(c2nc(OCC3CCCN3C)nc3c2CCN(c2cccc4cccc(Cl)c24)C3)CC1CC#N` (stereo not drawn) + CN1CCN(c2cc(C(=O)Nc3cc4cc(-c5cnn(C)c5)ccc4cn3)ccn2)CC1, the IC50 by setting is: under setting [1], above 10000 nM; under setting [2], 31.6 nM; under setting [3], below 31.6 nM; under setting [4], below 31.6 nM; under setting [5], below 31.6 nM; under setting [6], below 31.6 nM. In addition, the viability, T/C reads like this: under setting [7], 59%; under setting [8], 56.5%; under setting [9], 48.5%; under setting [10], 74.6%; under setting [11], 84.4%; under setting [12], 29.1%. Besides, the viability, T/C under setting [13] is 45.1%; the viability, T/C under setting [14] was 44.3%; the viability, T/C under setting [15] was 38%; the viability, T/C under setting [16] was 44.3%; the viability, T/C under setting [17] was 58.5%; the viability, T/C under setting [18] is 25.3%. Besides, the viability, T/C reads like this: under setting [19], 15.6%; under setting [20], 14.8%; under setting [21], 14.6%; under setting [22], 15.5%; under setting [23], 13.2%; under setting [24], 5.86%. Also, the viability, T/C is 2.38% under setting [25]; 2.52% under setting [26]; 2.56% under setting [27]; 2.45% under setting [28]; 1.97% under setting [29]; 0.73% under setting [30]. The viability, T/C by setting is: under setting [31], 2.89%; under setting [32], 2.94%; under setting [33], 2.9%; under setting [34], 2.86%; under setting [35], 4.1%; under setting [36], 0.62%. Further, the viability, T/C is 3.59% under setting [37]; 3.43% under setting [38]; 2.46% under setting [39]; 2.58% under setting [40]; 3.56% under setting [41]; 0.3% under setting [42].

As to `CC1(C)CCC(CN2CCN(c3ccc(C(=O)NS(=O)(=O)c4ccc(NCC5CCOCC5)c([N+](=O)[O-])c4)c(Oc4cnc5[nH]ccc5c4)c3)CC2)=C(c2ccc(Cl)cc2)C1`, the viability, T/C is 97.7% and 104% (compound 0.0316 µM); 103% and 96.6% (compound 0.1 µM); 103% and 100% (compound 0.316 µM); 95.6% and 102% (compound 1 µM); 93.1% and 89.5% (compound 3.16 µM); 6.41% and 8.48% (compound 10 µM). Moreover, the IC50 (curve of compound) is 5610 nM and 5540 nM.
